Source: ChEMBL document CHEMBL5550180, “Enhancing anti-cancer capacity: Novel class I/II HDAC inhibitors modulate EMT, cell cycle, and apoptosis pathways” (Bioorg Med Chem, 2024)
The source made the active and inactive calls. The rule behind the calls is not given here.

Assays:
[1] = Toxicity in zebrafish embryo at […] measured after 96 hrs post fertilization; design: species or system Danio rerio; details: in vivo
A549 [2] = experiment: cells; type: functional, cell-based; details: Homo sapiens, A549, 48 h
Description: Anticancer activity against human A549 cells assessed as inhibition of cell growth measured for 48 hrs by MTT assay

HT-29 [3] = experiment: cells; type: functional, cell-based; details: Homo sapiens, HT-29, 48 h
Description: Anticancer activity against human HT-29 cells assessed as inhibition of cell growth measured for 48 hrs by MTT assay

NCI-H1299 = experiment: Anticancer activity against human NCI-H1299 cells assessed as reduction in cell viability at 10 to 40 uM incubated for 48 hrs by MTT assay; type: functional, cell-based; details: dose 10-40 µM
A549 [4] = experiment: Anticancer activity against human A549 cells assessed as suppression of cell viability at 10 uM incubated for 48 hrs by MTT assay; type: functional, cell-based
HT-29 [5] = experiment: Anticancer activity against human HT-29 cells assessed as suppression of cell viability at 10 uM incubated for 48 hrs by MTT assay; type: functional, cell-based
A549 [6] = experiment: Anticancer activity against human A549 cells assessed as viable cells by measuring green fluorescence intensity measured for 48 hrs by Calcein AM staining based fluorescent microscopic analysis; type: functional, cell-based; details: dose 1-20 µM
HT-29 [7] = experiment: Anticancer activity against human HT-29 cells assessed as viable cells by measuring green fluorescence intensity measured for 48 hrs by Calcein AM staining based fluorescent microscopic analysis; type: functional, cell-based; details: dose 1-20 µM
A549 [8] = experiment: Inhibition of colony formation in human A549 cells at 125 to 250 nM measured for 10 days by crystal violet staining based analysis; type: functional, cell-based; details: dose 125-250 nM, time 10.0 day
HT-29 [9] = experiment: Inhibition of colony formation in human HT-29 cells at 50 to 100 nM measured for 10 days by crystal violet staining based analysis; type: functional, cell-based; details: dose 50-100 nM, time 10.0 day
[10] = target: T1, Histone deacetylase (Homo sapiens) (UniProt Q13547+O15379+Q9UBN7+Q92769+Q9UQL6+Q8WUI4+Q9BY41+Q96DB2+P56524+Q9UKV0+Q969S8); experiment: Inhibition of HDAC in human A549 cells incubated for 48 hrs by Western blot analysis; type: cell-based; details: dose 0.1-10 µM
[11] = target: T1, Histone deacetylase (Homo sapiens); experiment: Inhibition of HDAC in human HT-29 cells incubated for 48 hrs by Western blot analysis; type: cell-based; details: dose 0.1-10 µM
[12] = target: T1, Histone deacetylase (Homo sapiens); experiment: Inhibition of HDAC in human HT-29 cells assessed as increase in histone acetylation level at 1 to 2 uM incubated for 48 hrs by Western blot analysis; type: cell-based; details: dose 1-2 µM
[13] = target: T1, Histone deacetylase (Homo sapiens); experiment: Inhibition of HDAC in human HT-29 cells assessed as increase in acetyl alpha-tubulin level at 1 to 2 uM incubated for 48 hrs by Western blot analysis; type: cell-based; details: dose 1-2 µM
A549 [14] = experiment: Inhibition of cell migration in human A549 cells at 1.25 uM measured at 24 hrs by wound healing assay (reference value: 68.4%); type: functional
HT-29 [15] = experiment: Inhibition of cell migration in human HT-29 cells assessed as upregulation of E-cadherin level at 1 to 2 uM incubated for 48 hrs by Western blot analysis; type: functional, cell-based; details: dose 1-2 µM
HT-29 [16] = experiment: Inhibition of cell migration in human HT-29 cells assessed as downregulation of vimentin level at 1 to 2 uM incubated for 48 hrs by Western blot analysis; type: functional, cell-based; details: dose 1-2 µM
HT-29 [17] = experiment: Inhibition of cell migration in human HT-29 cells assessed as downregulation of slug level at 1 to 2 uM incubated for 48 hrs by Western blot analysis; type: functional, cell-based; details: dose 1-2 µM
A549 [18] = experiment: Induction of cell cycle arrest in human A549 cells assessed as accumulation at G2/M phase at 2.5 to 5 uM incubated for 24 to 48 hrs by PI-staining based flow cytometric analysis; type: functional; details: dose 2.5-5 µM, time 24-48 hrs
HT-29 [19] = experiment: Induction of cell cycle arrest in human HT-29 cells assessed as accumulation at G2/M phase at 2.5 to 5 uM incubated for 24 to 48 hrs by PI-staining based flow cytometric analysis; type: functional; details: dose 2.5-5 µM, time 24-48 hrs
A549 [20] = experiment: Induction of cell cycle arrest in human A549 cells assessed as accumulation at sub G1 at 2.5 to 5 uM incubated for 24 to 48 hrs by PI-staining based flow cytometric analysis; type: functional; details: dose 2.5-5 µM, time 24-48 hrs
A549 [21] = experiment: Induction of apoptosis in human A549 cells assessed as increase in PARP level at 2.5 to 5 uM incubated for 48 hrs by Western blot analysis; type: functional, cell-based; details: dose 2.5-5 µM
A549 [22] = experiment: Induction of apoptosis in human A549 cells assessed as increase in caspase 3 level at 2.5 to 5 uM incubated for 48 hrs by Western blot analysis; type: functional, cell-based; details: dose 2.5-5 µM
A549 [23] = experiment: Induction of apoptosis in human A549 cells assessed as upregulation of p53 expression at 2.5 to 5 uM incubated for 48 hrs by Western blot analysis; type: functional, cell-based; details: dose 2.5-5 µM
A549 [24] = experiment: Induction of cell cycle arrest in human A549 cells assessed as effect on p21 level at 2.5 to 5 uM incubated for 48 hrs by Western blot analysis; type: functional, cell-based; details: dose 2.5-5 µM
A549 [25] = experiment: Induction of cell cycle arrest in human A549 cells assessed as effect on cyclin B1 level at 2.5 to 5 uM incubated for 48 hrs by Western blot analysis; type: functional, cell-based; details: dose 2.5-5 µM
A549 [26] = experiment: Anticancer activity against human A549 cells cultured as 3D spheroids assessed as suppression of cell growth at 10 uM incubated for 48 hrs by celltiter-glo luminescent assay; type: functional, cell-based
[27] = Toxicity in zebrafish embryo assessed as hatching rate at 0.5 to 2.5 uM measured after 72 hrs post fertilization by microscopic analysis; design: species or system Danio rerio; details: in vivo, dose 0.5-2.5 µM
[28] = Toxicity in zebrafish embryo assessed as survival rate at 0.5 to 2.5 uM measured after 72 hrs post fertilization; design: species or system Danio rerio; details: in vivo, dose 0.5-2.5 µM
[29] = Toxicity in zebrafish embryo assessed as effect on body length at 0.5 to 2.5 uM measured after 96 hrs post fertilization by microscopic analysis; design: species or system Danio rerio; details: in vivo, dose 0.5-2.5 µM
[30] = Toxicity in zebrafish embryo assessed as formation of scoliosis at 0.5 to 2.5 uM measured after 96 hrs post fertilization by microscopic analysis; design: species or system Danio rerio; details: in vivo, dose 0.5-2.5 µM
[31] = Toxicity in zebrafish embryo assessed as formation of spinal curvature at 0.5 to 2.5 uM measured after 96 hrs post fertilization by microscopic analysis; design: species or system Danio rerio; details: in vivo, dose 0.5-2.5 µM
[32] = Toxicity in zebrafish embryo assessed as formation of spinal curvature at 1 to 5 uM measured after 96 hrs post fertilization by microscopic analysis; design: species or system Danio rerio; details: in vivo, dose 1-5 µM
[33] = Toxicity in zebrafish embryo assessed as yolk sac edema at 0.5 to 2.5 uM measured after 96 hrs post fertilization by microscopic analysis; design: species or system Danio rerio; details: in vivo, dose 0.5-2.5 µM
A549 [34] = experiment: Inhibition of cell migration in human A549 cells at 1.25 uM measured at 48 hrs by wound healing assay (reference value: 42.3%); values are per cent of control; details: A549, 48 h
HT-29 [35] = experiment: Inhibition of cell migration in human HT-29 cells at 0.5 uM measured at 24 hrs by wound healing assay (reference value: 85.7%); values are per cent of control; details: HT-29, 24 h
HT-29 [36] = experiment: Inhibition of cell migration in human HT-29 cells at 0.5 uM measured at 48 hrs by wound healing assay (reference value: 73.2%); values are per cent of control; details: HT-29, 48 h
A549 [37] = experiment: Inhibition of cell migration in human A549 cells at 1.25 uM measured immediately by wound healing assay (reference value: 100%); values are per cent of control
HT-29 [38] = experiment: Inhibition of cell migration in human HT-29 cells at 0.5 uM measured immediately by wound healing assay (reference value: 100%); values are per cent of control

NC(=O)NO [HYDROXYUREA]
Activity [1]: Toxic

COc1ccc(S(=O)(=O)n2cc(Cc3ccc(C(=O)Nc4ccccc4N)cc3)c3ccccc32)cc1
IC50 (A549 [2]): 2520 nM | IC50 (HT-29 [3]): 920 nM | Activity (NCI-H1299): Active | Activity (A549 [4]): Active | Activity (HT-29 [5]): Active | Activity (A549 [6]): Dose-Dependent Effect | Activity (HT-29 [7]): Dose-Dependent Effect | inhibition (A549 [8]): Active | inhibition (HT-29 [9]): Active | inhibition [10]: Active | inhibition [11]: Active | inhibition [12]: Active | inhibition [13]: Active | inhibition at 1.25 µM (A549 [14]): 77.4% | inhibition (HT-29 [15]): Active | inhibition (HT-29 [16]): Active | inhibition (HT-29 [17]): Active | Activity (A549 [18]): Active | Activity (HT-29 [19]): Active | Activity (A549 [20]): Active | Activity (A549 [21]): Active | Activity (A549 [22]): Active | Activity (A549 [23]): Active | Activity (A549 [24]): Active | Activity (A549 [25]): Active | Activity (A549 [26]): Active | Activity [27]: 100% | survival at 72 h, up to 2.5 µM [28]: ~100% | Activity [29]: Non-Toxic | Activity [30]: Non-Toxic | Activity [31]: Non-Toxic | Activity [32]: Non-Toxic | Activity [33]: Non-Toxic | wound area remaining at 1.25 µM (A549 [34]): 53.3% | wound area remaining at 0.5 µM (HT-29 [35]): 93.8% | wound area remaining at 0.5 µM (HT-29 [36]): 90.1% | wound area remaining at 1.25 µM (A549 [37]): 100% | wound area remaining at 0.5 µM (HT-29 [38]): 100%
